Assay results taken from patent publication US9403776B2, “Aryl- and heteroaryl-substituted tetrahydrobenzazepines and use thereof to block reuptake of norepinephrine, dopamine, and serotonin” (Albany Molecular Research, Inc., priority 2005, dated 2016).
Counter-ions that a name gives are not always drawn.

Molecule `CN1CCC(c2ccccc2)c2ccc(F)cc2C1.O=C(O)/C=C\C(=O)O` (stereo not shown) has a melting point of 153 to 155 °C. Molecule `COc1ccc2c(c1)CN(C)CCC2c1cc(F)c(C#N)c(F)c1` (stereo not shown) (as salt: citrate) has a melting point of 82 to 86 °C. With `COc1ccc2c(c1)CN(C)CCC2c1cc(F)c(O)c(F)c1` (stereo not shown) (as salt: citrate) [Example 62, 2,6-difluoro-4-(8-methoxy-2-methyl-2,3,4,5-tetrahydro-1H-benzo[c]azepin-5-yl)phenol] the melting point was 88 to 90 °C. With `CN1CCC(c2ccccc2)c2ccc(C#N)cc2C1` (stereo not shown) (as salt: maleate) the melting point was 67 to 69 °C. Molecule `COc1ccc2c(c1)CN(C)CCC2c1ccc(O)c(F)c1` (stereo not shown) (as salt: maleate) [Example 63, 2-fluoro-4-(8-methoxy-2-methyl-2,3,4,5-tetrahydro-1H-benzo[c]azepin-5-yl)phenol] has a melting point of 50 to 54 °C. Molecule `COc1ccc2c(c1)CN(C)CCC2c1ccccc1` (racemic) (as salt: fumarate) [Example 1, (+/−)-8-methoxy-2-methyl-5-phenyl-2,3,4,5-tetrahydro-1H-benzo[c]azepine] has a melting point of 171 to 173 °C. Molecule `COc1cccc2c1C(c1ccccc1)CCN(C)C2` (racemic) (as salt: fumarate) [Example 2, (+/−)-6-methoxy-2-methyl-5-phenyl-2,3,4,5-tetrahydro-1H-benzo[c]azepine] has a melting point of 154 to 156 °C. `COc1ccc2c(c1)CN(C)CCC2c1ccc(F)cc1` (racemic) (as salt: hydrochloride) [Example 3, (+/−)-5-(4-fluorophenyl)-8-methoxy-2-methyl-2,3,4,5-tetrahydro-1H-benzo[c]azepine] showed a melting point of 149 to 150 °C. Work on `COc1ccc(C2CCN(C)Cc3cc(OC)ccc32)cc1` (racemic) (as salt: hydrochloride) [Example 5, (+/−)-5-(4-methoxyphenyl)-8-methoxy-2-methyl-2,3,4,5-tetrahydro-1H-benzo[c]azepine] yielded a melting point of 165 to 166 °C. Work on `COc1ccc2c(c1)CN(C)CCC2c1ccc(Cl)cc1` (racemic) (as salt: hydrochloride) [Example 7, (+/−)-5-(4-chlorophenyl)-8-methoxy-2-methyl-2,3,4,5-tetrahydro-1H-benzo[c]azepine] yielded a melting point of 152 to 153 °C. Molecule `COc1ccc2c(c1)CN(C)CCC2c1ccc(F)c(F)c1` (racemic) (as salt: hydrochloride) [Example 9, (+/−)-5-(3,4-difluorophenyl)-8-methoxy-2-methyl-2,3,4,5-tetrahydro-1H-benzo[c]azepine] has a melting point of 139 to 141 °C. With `COc1ccc2c(c1)CN(C)CCC2c1ccccc1Cl` (racemic) (as salt: hydrochloride) [Example 10, (+/−)-5-(2-chlorophenyl)-8-methoxy-2-methyl-2,3,4,5-tetrahydro-1H-benzo[c]azepine] the melting point was 129 to 132 °C. For `COc1ccc2c(c1)CN(C)CCC2c1ccc(F)c(Cl)c1` (racemic) (as salt: hydrochloride) [Example 11, (+/−)-5-(3-chloro-4-fluorophenyl)-8-methoxy-2-methyl-2,3,4,5-tetrahydro-1H-benzo[c]azepine], the melting point was 167 to 169 °C. With `COc1ccc2c(c1)CNCCC2c1ccccc1` (racemic) (as salt: maleate) [Example 53, (+/−)-8-methoxy-5-phenyl-2,3,4,5-tetrahydro-1H-benzo[c]azepine] the melting point was 154 to 156 °C. For `COc1ccc2c(c1)CN(C(C)C)CCC2c1ccccc1` (racemic) (as salt: maleate) [Example 55, (+/−)-2-isopropyl-8-methoxy-5-phenyl-2,3,4,5-tetrahydro-1H-benzo[c]azepine], the melting point was 172 to 175 °C. `CN1CCC(c2ccc(Cl)cc2)c2ccc(-c3ccc(N(C)C)nn3)cc2C1` (single isomer, unassigned) (as salt: maleate) [Example 45, {6-[5-(4-chlorophenyl)-2-methyl-2,3,4,5-tetrahydro-1H-benzo[c]azepine-8-yl]-pyridazin-3-yl}-dimethylamine] gave a melting point of 96 to 98 °C.
